This is an account of results in US5171676A, “Method of introducing hydroxyl groups into artemisinin and its derivatives” (priority 1991, dated 1992).

Converted amounts (≈) assume the structure as drawn. Like-named read-outs stand apart in the source and are kept apart here.

For data set [1], the system named is Plasmodium falciparum, malarial strain D6. Briefly: Antimalarial activity in vitro, growth inhibition, strain D6. In kind it is cell-based. The following applies: for IC50: Plasmodium falciparum. As to the method: (§1) The antimalarial activity of various hydroxylated artemisinin derivatives obtained via the present method was determined by Drs. S. Anderson and W.K. Milhous at the Division of Experimental Therapeutics, Walter Reed Army Institute of Research, Washington, D.C.
(§2) The malarial strains employed in this survey include D6, W2, and GA3. In Table 2, below, the -pharmacological data are reported as IC-50, indicating the concentration, in ng per ml, of compound required to inhibit growth of the parasite at the 50% level.

Data set [2] deals with Plasmodium falciparum, malarial strain W2. Briefly: Antimalarial activity in vitro, growth inhibition, strain W2. The settings on record: for IC50: Plasmodium falciparum. The format is cell-based. As to the method:
as §1, §2

Data set [3] concerns Plasmodium falciparum, malarial strain GA3. Briefly: Antimalarial activity in vitro, growth inhibition, strain GA3. In kind it is cell-based. The settings on record: 50% inhibition of parasite growth; for IC50: Plasmodium falciparum. As to the method:
as §1, §2

In a further data set the test system is Plasmodium falciparum. Put plainly: Antimalarial activity against the strains tested (summary of in vitro tests). In kind it is cell-based. The settings on record: in words. The procedure:
as §1, §2

Another data set relates to P. falciparum. The following applies: cited from earlier work.
For another data set, the system named is Falciparum malaria. The settings on record: cited from earlier work; for reversal of chloroquine-resistance: with chloroquine, reports by Van Dyke et al.
Setting [4] is: strain D6, in vitro, 50% inhibition of parasite growth, read-out: IC-50.
The mark [5] stands for this setting: strain W2, in vitro, 50% inhibition of parasite growth, read-out: IC-50.

As for `CCOC1OC2OC3(C)CCC4C(C)C(O)CC(C1C)C24OO3` (stereo not drawn) [7β-Hydroxyarteether], the IC-50 in data set [1] (strain D6, in vitro, 50% inhibition of parasite growth) is 12.6 ng/mL; in data set [2] (strain W2, in vitro, 50% inhibition of parasite growth), 2.78 ng/mL; in data set [3], 8.83 ng/mL. In addition, the antimalarial activity entry with Plasmodium falciparum is recorded as “exhibit antimalarial activity against the strains tested”.
`C[C@H]1C(OC(=O)Nc2ccccc2)O[C@@H]2O[C@@]3(C)CC[C@H]4[C@H](CO)CC[C@@H]1[C@@]24OO3` (stereo partly shown) [14-Hydroxy-N-phenylcarbamoyl dihydroartemisinin]: the IC50 in data set [1] (setting [4]) worked out at 2 ng/mL (≈ 4.77 nM). Also, the antimalarial activity entry in the data set on Plasmodium falciparum is reported as “exhibit antimalarial activity against the strains tested”.
On to `CCOC1OC2OC3(C)CCC4C(CO)CCC(C1C)C24OO3` (stereo not shown) [14-Hydroxyarteether], for which the IC50 in data set [1] (setting [4]) turned out to be 12.6 ng/mL (≈ 38.4 nM); in data set [2] (setting [5]) it was 2.77 ng/mL (≈ 8.43 nM); in data set [3] it was 8.18 ng/mL (≈ 24.9 nM). In addition, the antimalarial activity result with Plasmodium falciparum is “exhibit antimalarial activity against the strains tested”.
Regarding `CCOC1OC2OC3(C)CCC4C(C)CCC(C1C)C24OO3` (stereo not shown) [Arteether, ethyl ether of dihydroartemisinin], the IC50 was 0.73 ng/mL (≈ 2.34 nM) in data set [1] (setting [4]), 0.28 ng/mL (≈ 0.896 nM) in data set [2] (setting [5]) and 0.498 ng/mL (≈ 1.59 nM) in data set [3].
With `C[C@@H]1CC[C@H]2[C@@H](C)C(=O)O[C@@H]3O[C@@]4(C)CC[C@@H]1[C@]32OO4` [Artemisinin, artemisinin], the IC50 worked out at 0.97 ng/mL (≈ 3.44 nM) in data set [1] (setting [4]), 0.79 ng/mL (≈ 2.8 nM) in data set [2] (setting [5]) and 1.58 ng/mL (≈ 5.6 nM) in data set [3]. Further, in the data set on P. falciparum (P. falciparum), the resistance development result is given as “P. falciparum has not developed resistance”. In addition, the speed of action entry in the data set on P. falciparum is “act rapidly”. For the same compound, the toxicity entry with P. falciparum is listed as “relatively non-toxic”.
With `CCN(CC)CCCC(C)Nc1ccnc2cc(Cl)ccc12` (stereo not shown) [Chloroquine, chloroquine], the IC50 in data set [1] (D6) worked out at 6.63 ng/mL (≈ 20.7 nM); in data set [2] (W2), 41.4 ng/mL (≈ 129 nM).
In the case of `COc1ccc2cc1Oc1ccc(cc1)C[C@H]1c3cc(c(OC)cc3CCN1C)Oc1c(OC)c(OC)cc3c1[C@H](C2)N(C)CC3` [tetrandrine], in the data set with Falciparum malaria (Van Dyke), the “synergy with antimalarial drugs” value is listed as “act in a synergistic manner to greatly reduce the quantities of drugs required for activity”. Besides, the reversal of chloroquine-resistance entry with Falciparum malaria was “reverse the chloroquine-resistance in Falciparum malaria”.
Take `COc1ccc(CCN(C)CCCC(C#N)(c2ccc(OC)c(OC)c2)C(C)C)cc1OC` (stereo not shown) [verapamil]: in the data set on Falciparum malaria, the “synergy with antimalarial drugs” value was “act in a synergistic manner to greatly reduce the quantities of drugs required for activity” and the reversal of chloroquine-resistance result is listed as “reverse the chloroquine-resistance in Falciparum malaria”.
